# Measured values reported in ChEMBL document CHEMBL5390198, “Scaffold hopping of N-benzyl-3,4,5-trimethoxyaniline: 5,6,7-Trimethoxyflavan derivatives as novel potential anticancer agents modulating hippo signaling pathway” (2023).
# Calls of active or inactive are those of the source. The calls are words filed in the database; no cut-off is given here.
# Experiments:
# Type in all cases: functional
# HOP-62 = experiment: Antiproliferative activity against human HOP-62 cells assessed as inhibition of cell growth at 10 uM measured after 24 to 72 hrs by SRB method relative to control; settings: time 24-72 hrs
# NCI-H23 = experiment: cells; settings: Homo sapiens, time 24-72 hrs
# Description: Antiproliferative activity against human NCI-H23 cells assessed as inhibition of cell growth at 10 uM measured after 24 to 72 hrs by SRB method relative to control
# NCI-H522 = experiment: Antiproliferative activity against human NCI-H522 cells assessed as inhibition of cell growth at 10 uM measured after 24 to 72 hrs by SRB method relative to control; settings: time 24-72 hrs
# NCI-H322M = experiment: Antiproliferative activity against human NCI-H322M cells assessed as inhibition of cell growth at 10 uM measured after 24 to 72 hrs by SRB method relative to control; settings: time 24-72 hrs
# HOP-92 = experiment: cells; settings: Homo sapiens, time 24-72 hrs
# Description: Antiproliferative activity against human HOP-92 cells assessed as inhibition of cell growth at 10 uM measured after 24 to 72 hrs by SRB method relative to control
# EKVX = experiment: cells; settings: Homo sapiens, time 24-72 hrs
# Description: Antiproliferative activity against human EKVX cells assessed as inhibition of cell growth at 10 uM measured after 24 to 72 hrs by SRB method relative to control
# NCI-H226 = experiment: cells; settings: Homo sapiens, time 24-72 hrs
# Description: Antiproliferative activity against human NCI-H226 cells assessed as inhibition of cell growth at 10 uM measured after 24 to 72 hrs by SRB method relative to control
# A549 = experiment: cells; settings: Homo sapiens, time 24-72 hrs
# Description: Antiproliferative activity against human A549 cells assessed as inhibition of cell growth at 10 uM measured after 24 to 72 hrs by SRB method relative to control
# NCI-H460 = experiment: cells; settings: Homo sapiens, time 24-72 hrs
# Description: Antiproliferative activity against human NCI-H460 cells assessed as inhibition of cell growth at 10 uM measured after 24 to 72 hrs by SRB method relative to control
# DU-145 = experiment: Growth inhibition of human DU-145 cells measured after 24 to 72 hrs by SRB method; settings: time 24-72 hrs
# PC-3 = experiment: Growth inhibition of human PC-3 cells measured after 24 to 72 hrs by SRB method; settings: time 24-72 hrs
# MDA-MB-435 = experiment: Growth inhibition of human MDA-MB-435 cells measured after 24 to 72 hrs by SRB method; settings: time 24-72 hrs
# SK-MEL-28 = experiment: Growth inhibition of human SK-MEL-28 cells measured after 24 to 72 hrs by SRB method; settings: time 24-72 hrs
# K562 = experiment: Antiproliferative activity against human K562 cells assessed as inhibition of cell growth at 10 uM measured after 24 to 72 hrs by SRB method relative to control; settings: time 24-72 hrs
# MOLT-4 = experiment: Antiproliferative activity against human MOLT-4 cells assessed as inhibition of cell growth at 10 uM measured after 24 to 72 hrs by SRB method relative to control; settings: time 24-72 hrs
# CCRF-CEM = experiment: Antiproliferative activity against human CCRF-CEM cells assessed as inhibition of cell growth at 10 uM measured after 24 to 72 hrs by SRB method relative to control; settings: time 24-72 hrs
# SR = experiment: Antiproliferative activity against human SR cells assessed as inhibition of cell growth at 10 uM by measured after 24 to 72 hrs SRB method relative to control; settings: time 24-72 hrs
# RPMI-8226 = experiment: Antiproliferative activity against human RPMI-8226 cells assessed as inhibition of cell growth at 10 uM measured after 24 to 72 hrs by SRB method relative to control; settings: time 24-72 hrs
# HL-60 = experiment: Antiproliferative activity against human HL-60 cells assessed as inhibition of cell growth at 10 uM measured after 24 to 72 hrs by SRB method relative to control; settings: time 24-72 hrs
# U-251 = experiment: Growth inhibition of human U-251 cells measured after 24 to 72 hrs by SRB method; settings: time 24-72 hrs
# SF-268 = experiment: Growth inhibition of human SF-268 cells measured after 24 to 72 hrs by SRB method; settings: time 24-72 hrs
# SF-295 = experiment: Growth inhibition of human SF-295 cells measured after 24 to 72 hrs by SRB method; settings: time 24-72 hrs
# SNB-19 = experiment: Growth inhibition of human SNB-19 cells measured after 24 to 72 hrs by SRB method; settings: time 24-72 hrs
Compound,inhibition at 10 µM (HOP-62) [%],inhibition at 10 µM (NCI-H23) [%],inhibition at 10 µM (NCI-H522) [%],inhibition at 10 µM (NCI-H322M) [%],inhibition at 10 µM (HOP-92) [%],inhibition at 10 µM (EKVX) [%],inhibition at 10 µM (NCI-H226) [%],inhibition at 10 µM (A549) [%],inhibition at 10 µM (NCI-H460) [%],further results
COc1ccccc1C(=O)Nc1cccc(C2CCc3c(cc(OC)c(OC)c3OC)O2)c1 (stereo not drawn),4.59,0.42,19.7,3.14,4.05,2.25,8.5,11.7,2.38,–
COc1cc2c(c(OC)c1OC)CCC(c1cccc(C(=O)Nc3cccc(Br)c3)c1)O2 (stereo not drawn),3.19,22.5,51.2,49.1,93.8,49.6,30.1,35.5,29.5,–
COc1cc2c(c(OC)c1OC)CCC(c1cccc(C(=O)NC(C)C)c1)O2 (stereo not drawn),1.41,6.78,17,4.16,19.7,–,16.4,1.14,2.47,–
COc1cc2c(c(OC)c1OC)CCC(c1cccc(NC(=O)c3cccc(Br)c3)c1)O2 (stereo not drawn),0.21,4.86,19,1.51,6.02,15.4,6.31,18.8,–,–
CNC(=O)c1ccc(N2C(=S)N(c3ccc(C#N)c(C(F)(F)F)c3)C(=O)C2(C)C)cc1F [ENZALUTAMIDE],–,–,–,–,–,–,–,–,–,GI50 (DU-145): > 31 µM; GI50 (PC-3): 22 µM
COc1cc2c(c(OC)c1OC)CCC(c1cccc(NC(=O)C(C)C)c1)O2 (stereo not drawn),–,2.65,9.48,–,–,–,3.99,10.7,–,inhibition (HOP-62): inactive; inhibition (NCI-H322M): inactive
COc1cc(C(=O)Nc2cccc(C3CCc4c(cc(OC)c(OC)c4OC)O3)c2)cc(OC)c1OC (stereo not drawn),26.1,6.7,56.8,3.54,48.9,19.5,23.8,27.6,12.7,–
COc1ccccc1NC(=O)c1cccc(C2CCc3c(cc(OC)c(OC)c3OC)O2)c1 (stereo not drawn),8.84,1.98,27.7,11.4,9.4,5.98,8.23,9.57,2.86,–
COc1cc2c(c(OC)c1OC)CCC(c1cccc(C(=O)Nc3ccc([N+](=O)[O-])cc3)c1)O2 (stereo not drawn),23.3,52.8,50.4,31.7,57.4,44.6,51.7,44.8,41.1,–
COc1cc2c(c(OC)c1OC)CCC(c1cccc(NC(=O)c3ccccc3Br)c1)O2 (stereo not drawn),2.7,5.1,20.7,6.37,8.39,7.82,14.6,13.8,–,–
COc1cc2c(c(OC)c1OC)CCC(c1cccc(C(=O)Nc3cccc(Cl)c3)c1)O2 (stereo not drawn),20.4,14.2,48.3,48.3,91.5,35.8,34.4,38.5,15,–
COc1cccc(C(=O)Nc2cccc(C3CCc4c(cc(OC)c(OC)c4OC)O3)c2)c1 (stereo not drawn),8.46,10.2,33.5,18.6,13,15.2,24,22.1,4.3,–
COc1cc2c(c(OC)c1OC)CCC(c1cccc(NC(=O)c3ccc(Br)cc3)c1)O2 (stereo not drawn),12.8,19.9,25.4,24.9,41.5,22.8,27.6,32.6,6.47,–
COc1cc2c(c(OC)c1OC)CCC(c1cccc(C(=O)Nc3ccc(C#N)cc3)c1)O2 (stereo not drawn),27.9,59.4,61.6,22.6,47.7,39.9,67,49.1,43.5,–
COc1cc2c(c(OC)c1OC)CCC(c1cccc(C(=O)Nc3ccccc3Br)c1)O2 (stereo not drawn),7.73,2.79,19.9,5.11,33.7,9.92,7.74,18.9,–,–
COc1cc2c(c(OC)c1OC)CCC(c1cccc(NC(=O)c3ccc([N+](=O)[O-])cc3)c1)O2 (stereo not drawn),7.28,34.2,32.5,11,15.7,35.4,50.7,32.2,29,–
COc1cc2c(c(OC)c1OC)CCC(c1cccc(C(=O)Nc3ccc(Br)cc3)c1)O2 (stereo not drawn),18,24.2,51.1,50,83,39.5,37.3,35.8,16,–
COc1cc2c(c(OC)c1OC)CCC(c1cccc(NC(=O)c3ccccc3)c1)O2 (stereo not drawn),1.13,15.6,24.3,5.18,5.1,–,19.8,19.5,–,–
COc1cc2c(c(OC)c1OC)CCC(c1cccc(NC(=O)c3cccc(Cl)c3)c1)O2 (stereo not drawn),7.17,7.27,37.9,9.74,16.9,14.1,20.2,15,3.06,–
COc1cc2c(c(OC)c1OC)CCC(c1cccc(C(=O)Nc3ccccc3)c1)O2 (stereo not drawn),6.18,15.3,38,41.1,77.9,9.05,25.6,15.8,12.2,–
CN(C)/N=N/c1[nH]cnc1C(N)=O [DACARBAZINE],–,–,–,–,–,–,–,–,–,GI50 (MDA-MB-435): 84.3 µM; GI50 (SK-MEL-28): > 100 µM
COc1ccc(C(=O)Nc2cccc(C3CCc4c(cc(OC)c(OC)c4OC)O3)c2)cc1 (stereo not drawn),60.2,41.1,57.3,24.1,38.7,45.3,69.9,56.6,74.3,inhibition at 10 µM (K562): > 60%; inhibition at 10 µM (MOLT-4): > 60%; inhibition at 10 µM (CCRF-CEM): > 60%; inhibition at 10 µM (SR): > 60%; inhibition at 10 µM (RPMI-8226): > 60%; inhibition at 10 µM (HL-60): > 60%
COc1cc2c(c(OC)c1OC)CCC(c1cccc(NC(=O)c3ccc(C#N)cc3)c1)O2 (stereo not drawn),21.8,28.1,42.8,11.1,10.6,29,28.8,29.4,5.83,–
Cn1nnc2c(C(N)=O)ncn2c1=O [TEMOZOLOMIDE],–,–,–,–,–,–,–,–,–,GI50 (U-251): > 100 µM; GI50 (SF-268): > 100 µM; GI50 (SF-295): > 100 µM; GI50 (SNB-19): > 100 µM
COc1cccc(NC(=O)c2cccc(C3CCc4c(cc(OC)c(OC)c4OC)O3)c2)c1 (stereo not drawn),14.8,26.1,46.9,45.8,73.7,30.9,46.3,29.2,16,–
